From patent US20090220982A1, “COMPOSITIONS AND METHODS FOR DETERMINING NEPHROTOXICITY” (Achaogen Inc.., priority 2008, published 2009)
Like-named read-outs stand apart in the source and are kept apart here.

How the values were obtained:
[1] = cited from earlier work
[2] = co-therapy with gentamicin, guinea pigs; cited from earlier work
[3] = β-thalassemia patients; cited from earlier work
erythrocytes = settings: cited from earlier work
[4] = cited from earlier work; remark: listed apart in the source
HK-2 cells = experiment: HK-2 in vitro nephrotoxicity assay (CASPASEGLO caspase luminescence); type: cell-based, human
Description: An in vitro nephrotoxicity assay was conducted using the human kidney epithelial cell line, HK-2.
HK-2 cells were cultured in KSFM, with 5 ng/mL epidermal growth factor (EGF) and 0.05 mg/mL bovine pituitary extract (BPE). Cells were maintained at sub-confluence and used to initiate the assay when they reached 80% confluence.
Diluted compounds were added to plates. The plates were subsequently returned to the incubator overnight.
Luminescence was detected using a plate reading luminometer.
A human kidney proximal tubule cell line, HK-2 (ATCC #CRL-2190) is cultured in Keratinocyte-Serum Free Medium (K-SFM) (Invitrogen 17005-042) with 5 ng/mL of human recombinant epidermal growth factor (EGF) and 0.05 mg/mL Bovine Pituitary Extract (BPE). Culture medium containing EGF and/or BPE is not filtered subsequent to growth factor addition, and fresh growth factors are added to the culture medium after two weeks. The HK-2 cells are split so that they are 80% confluent on the day they need to be plated into 96 well plates. These cells are not allowed to become confluent.
Remove the HK-2 cells from the plate using trypsin-EDTA. Wash the plate with D-PBS. Add 0.5 mL trypsin, and incubate for 1 minute at room temperature or until cells start to lift off plate. Inactivate trypsin and harvest cells by adding prewarmed culture medium (37° C.) to the plate. […]
Thaw the CASPASEGLO reagents (CASPASEGLO 3/7 Assay, Promega G8093 10×10 mL or G8092 100 mL) at room temperature. For reagent addition to plates after 31 hour compound incubation: (i) remove plates from incubator (30.5 hours after adding compounds) for approximately 30 minutes to bring to room temperature; (ii) mix CASPASEGLO reagents according to manufacturer's instructions; (iii) add 50 μL of reagent/well to 96 well plates using BioMek®FX with tips 2 mm from bottom of reservoir well (Beckman Coulter); (iv) place plates on shaker platform and shake gently for 30 seconds; (v) incubate at room temperature for 30 minutes; (vi) place plates on shaker platform and shake gently for 30 seconds; and (vii) read plate 30-60 minutes after reagents are added, Analyst™ HT (LJL Biosystems™). The settings for the Analyst™ HT are: (i) default luminescence method; (ii) luminescence height, 1.5 mm; (iii) 5 readings per well; (iv) integration time of 100000 μs; and (v) attenuator out.
The average luminescence values are calculated along with the standard deviation of the replicates. The concentration of the aminoglycoside tested is graphed versus the corresponding luminescence reading. The area under the curve (AUC) is calculated for each experimental compound and for gentamicin. The EC50 can then be calculated for each experimental compound and gentamicin, using methods well known in the art.

[5] = 14-day rat nephrotoxicity model
Text: The rat in vivo assays provided information in the form of acute toxicity, changes in Blood Urea Nitrogen (BUN) and serum creatinine levels over time, as well as histopathology changes in the kidneys of animals sacrificed at the end of the study. Elevation in BUN or serum creatinine is one of the markers routinely monitored in the clinic as an indication of aminoglycoside nephrotoxicity.

[6] = patients, cited from earlier work
LLC-PK1 cells = settings: gentamicin introduced by electroporation; cited from earlier work
[7] = test system: renal brush border membranes; settings: in vitro; cited from earlier work
[8] = rats, cited from earlier work

O=C(O)c1cccc(O)c1O [DHB, 2,3-dihydroxybenzoate]
elevations in BUN and serum creatinine after gentamicin ([1]; rat, gentamicin treatment for eight days): reduced elevations in blood, urea, nitrogen (BUN) and serum creatinine | protection from gentamicin nephrotoxicity ([1]; rats): only partial protection from gentamicin nephrotoxicity | shifts in auditory thresholds [2]: significantly lower shifts in auditory thresholds | toxicity of oral doses for one year [3]: no toxicity was observed | H2O2 induced membrane peroxidation (erythrocytes): inhibits H2O2 induced membrane peroxidation in erythrocytes | solubility in aqueous solution [4]: poor solubility in aqueous solution

NCC[C@H](O)C(=O)N[C@@H]1C[C@H](N)[C@@H](O[C@H]2O[C@H](CN)[C@@H](O)[C@H](O)[C@H]2O)[C@H](O)[C@H]1O[C@H]1O[C@H](CO)[C@@H](O)[C@H](N)[C@H]1O [amikacin]
dose response curve of luminescence signal (induction of apoptosis) / EC50 (HK-2 cells): did not produce a maximal response at the highest concentration tested | rank order of nephrotoxicity by EC50 in the in vitro HK-2 assay (HK-2 cells): least nephrotoxic aminoglycoside tested | rank order of relative in vivo nephrotoxicity ([5]; rat, in vivo): followed by amikacin, neomycin, and gentamicin

CC(=O)Oc1ccccc1C(=O)O [aspirin]
hearing loss versus gentamicin alone ([6]; intravenous gentamicin and oral aspirin): significantly less hearing loss | side effect of aspirin treatment [6]: caused gastric bleeding in some patients

[H]/N=C(/N)N[C@H]1[C@H](O)[C@@H](O)[C@H](O[C@@H]2O[C@@H](C)[C@](O)(C=O)[C@H]2O[C@@H]2O[C@@H](CO)[C@H](O)[C@@H](O)[C@@H]2NC)[C@@H](N/C(N)=N\[H])[C@@H]1O [streptomycin]
rank order of relative in vivo nephrotoxicity ([5]; rat, in vivo): least nephrotoxic aminoglycoside tested

gentamicin
dose response curve of luminescence signal (induction of apoptosis) / EC50 (HK-2 cells; HK-2 cells, highest concentration tested 500 μg/mL, FIG. 2): produced a full dose response curve over the concentration range tested | rank order of nephrotoxicity by EC50 in the in vitro HK-2 assay (HK-2 cells; six compounds, FIG. 3A): followed by apramycin, gentamicin and neomycin, compound A, and compound B | apoptosis response (LLC-PK1 cells): dose-dependent apoptosis response at much lower gentamicin concentrations | rank order of relative in vivo nephrotoxicity ([5]; 14-day rat model, Example 3, FIG. 4): followed by amikacin, neomycin, and gentamicin | rank order of nephrotoxicity by minimum concentration of compound that produced an increase in BUN ([5]; 14-day rat model, six compounds, FIG. 3A): followed by apramycin, gentamicin and neomycin, compound A, and compound B

polyaspartic acid
aminoglycoside binding to renal brush border membranes [7]: prevent aminoglycoside binding to renal brush border membranes | creatinine elevation or histopathological changes ([8]; 16 weeks after the two week treatment): no creatinine elevation or histopathological changes | gentamicin concentration in kidneys versus gentamicin alone ([8]; end of 14 day treatment, co-dosed with polyaspartic acid): five-fold higher gentamicin concentration in their kidneys
